Measurements published in the supplement of paper PMC9103864.

Legend:
[1] = tested on: BMSC (primary human bone marrow mesenchymal stromal cells); test: drug sensitivity score (DSS); higher = more sensitive
[2] = tested on: BMSC (primary human bone marrow mesenchymal stromal cells); test: absolute EC50 for viability; higher = less sensitive

SMILES: Cc1cc(Nc2cc(N3CCN(C)CC3)nc(/C=C/c3ccccc3)n2)n[nH]1 [ENMD-2076]
- drug sensitivity score [1]: 11.5
- absolute EC50 for viability [2]: 897 nM

SMILES: COc1cc2nccc(Oc3ccc(NC(=O)C4(C(=O)Nc5ccc(F)cc5)CC4)cc3)c2cc1OC [Cabozantinib]
- drug sensitivity score [1]: 3.6
- absolute EC50 for viability [2]: > 1000 nM

SMILES: C[C@@H]1CCN(C(=O)CC#N)C[C@@H]1N(C)c1ncnc2[nH]ccc12 [Tofacitinib]
- drug sensitivity score [1]: 0
- absolute EC50 for viability [2]: > 5000 nM

SMILES: COc1cccc2c1C(=O)c1c(O)c3c(c(O)c1C2=O)C[C@@](O)(C(=O)CO)C[C@@H]3O[C@H]1C[C@H](N)[C@@H](O)[C@H](C)O1 [Epirubicin]
- drug sensitivity score [1]: 6.4
- absolute EC50 for viability [2]: 249 nM

SMILES: CNC(=O)[C@@H](NC(=O)[C@H](CC(C)C)[C@H](O)C(=O)NO)C(C)(C)C [Marimastat]
- drug sensitivity score [1]: 0
- absolute EC50 for viability [2]: > 10000 nM

SMILES: CC(C)(C)c1cc(NC(=O)Nc2ccc(-c3cn4c(n3)sc3cc(OCCN5CCOCC5)ccc34)cc2)no1 [Quizartinib]
- drug sensitivity score [1]: 2.2
- absolute EC50 for viability [2]: > 1000 nM

SMILES: COC(=O)C[C@](O)(CCCC(C)(C)O)C(=O)O[C@@H]1C(OC)=C[C@]23CCCN2CCc2cc4c(cc2[C@H]13)OCO4 [Omacetaxine]
- drug sensitivity score [1]: 18.6
- absolute EC50 for viability [2]: 219 nM

SMILES: Cc1sc2c(c1C)C(c1ccc(Cl)cc1)=N[C@@H](CC(=O)Nc1ccc(O)cc1)c1nnc(C)n1-2 [Birabresib]
- drug sensitivity score [1]: 4.9
- absolute EC50 for viability [2]: > 10000 nM

SMILES: CCOc1ccn(-c2ccc(F)cc2)c(=O)c1C(=O)Nc1ccc(Oc2ccnc(N)c2Cl)c(F)c1
- drug sensitivity score [1]: 0
- absolute EC50 for viability [2]: > 2500 nM

SMILES: CN1CCN(C(=O)c2ccc3cc(CCNc4ncnc5ccc(C#N)cc45)ccc3c2)CC1 [Senexin B]
- drug sensitivity score [1]: 0.3
- absolute EC50 for viability [2]: > 1000 nM

SMILES: CC[C@H](Nc1ncnc2[nH]cnc12)c1nc2cccc(F)c2c(=O)n1-c1ccccc1 [Idelalisib]
- drug sensitivity score [1]: 2.7
- absolute EC50 for viability [2]: > 10000 nM

SMILES: Cc1sc2c(c1C)C(c1ccc(Cl)cc1)=N[C@@H](CC(=O)OC(C)(C)C)c1nnc(C)n1-2 [JQ1]
- drug sensitivity score [1]: 5.3
- absolute EC50 for viability [2]: > 10000 nM

SMILES: Cc1cnc(NC(=O)Nc2cc(Br)c(C)cc2OC[C@@H]2CNCCO2)cn1 [Rabusertib]
- drug sensitivity score [1]: 0
- absolute EC50 for viability [2]: > 1000 nM

SMILES: COc1cc2nccc(Oc3ccc(NC(=O)NC4CC4)c(Cl)c3)c2cc1C(N)=O [Lenvatinib]
- drug sensitivity score [1]: 5.2
- absolute EC50 for viability [2]: > 2500 nM

SMILES: C=CC(=O)N1CCC[C@@H](n2nc(-c3ccc(Oc4ccccc4)cc3)c3c(N)ncnc32)C1 [Ibrutinib]
- drug sensitivity score [1]: 0
- absolute EC50 for viability [2]: > 1000 nM

SMILES: CC1=C(/C=C/C(C)=C/C=C/C(C)=C/C(=O)O)C(C)(C)CCC1 [Tretinoin]
- drug sensitivity score [1]: 0
- absolute EC50 for viability [2]: > 10000 nM

SMILES: C=CC(=O)Nc1cccc(Nc2nc(Nc3ccc(OCCOC)cc3)ncc2F)c1 [Spebrutinib]
- drug sensitivity score [1]: 1.2
- absolute EC50 for viability [2]: > 1000 nM

SMILES: Nc1nc2cc(-c3ccc4ncc(C(=O)N5CCOCC5)n4c3)ccc2o1 [Serabelisib]
- drug sensitivity score [1]: 3.3
- absolute EC50 for viability [2]: > 10000 nM

SMILES: CCOc1cc2ncc(C#N)c(Nc3ccc(OCc4ccccn4)c(Cl)c3)c2cc1NC(=O)/C=C/CN(C)C [Neratinib]
- drug sensitivity score [1]: 2.3
- absolute EC50 for viability [2]: > 1000 nM

SMILES: O=C1Cc2cc(C(=O)NC3C[C@H]4CC[C@@H](C3)N4S(=O)(=O)CC3CCN(CCCC(F)(F)F)CC3)c(Cl)cc2N1 (some centres undefined)
- drug sensitivity score [1]: 0
- absolute EC50 for viability [2]: > 10000 nM

SMILES: CN1CCN(CCOc2cc(OC3CCOCC3)c3c(Nc4c(Cl)ccc5c4OCO5)ncnc3c2)CC1 [Saracatinib]
- drug sensitivity score [1]: 5
- absolute EC50 for viability [2]: > 10000 nM

SMILES: C[C@]12C=CC(=O)C=C1CC[C@@H]1[C@@H]2[C@@H](O)C[C@@]2(C)[C@H]1CC[C@]2(O)C(=O)CO [Prednisolone]
- drug sensitivity score [1]: 0
- absolute EC50 for viability [2]: > 10000 nM

SMILES: CC[C@]12C=CCN3CC[C@@]4(c5cc([C@@]6(C(=O)OC)C[C@@H]7C[C@@H](C(C)(F)F)CN(Cc8c6[nH]c6ccccc86)C7)c(OC)cc5N(C)[C@H]4[C@@](O)(C(=O)OC)[C@@H]1OC(C)=O)[C@@H]32 [Vinflunine]
- drug sensitivity score [1]: 2.8
- absolute EC50 for viability [2]: > 1000 nM

SMILES: CCn1c(-c2nonc2N)nc2cnc(Oc3cccc(NC(=O)c4ccc(OCCN5CCOCC5)cc4)c3)cc21
- drug sensitivity score [1]: 7.3
- absolute EC50 for viability [2]: > 10000 nM

SMILES: C=CC(=O)N1CCC(Oc2cc3c(Nc4ccc(Cl)c(Cl)c4F)ncnc3cc2OC)CC1 [Poziotinib]
- drug sensitivity score [1]: 4.2
- absolute EC50 for viability [2]: > 1000 nM

SMILES: C[C@H]1Oc2cc(cnc2N)-c2c(nn(C)c2C#N)CN(C)C(=O)c2ccc(F)cc21
- drug sensitivity score [1]: 0.2
- absolute EC50 for viability [2]: > 1000 nM

SMILES: O=C(Nc1cccc(NC(=O)c2cccc(O)c2O)c1)c1cccc(O)c1O [MST-312]
- drug sensitivity score [1]: 9.7
- absolute EC50 for viability [2]: 1220 nM

SMILES: FC(F)(F)c1ccc(CNc2ccc(Cc3c[nH]c4ncc(Cl)cc34)cn2)cn1 [Pexidartinib]
- drug sensitivity score [1]: 3.6
- absolute EC50 for viability [2]: > 10000 nM

SMILES: CS(=O)(=O)c1ccc(-c2cnc(N)c(C(=O)Nc3ccccc3)n2)cc1 [VE-821]
- drug sensitivity score [1]: 0
- absolute EC50 for viability [2]: > 10000 nM

SMILES: COc1cc(CCc2cc(NC(=O)c3ccc(N4CC(C)NC(C)C4)cc3)n[nH]2)cc(OC)c1 (centres undefined) [AZD4547]
- drug sensitivity score [1]: 1
- absolute EC50 for viability [2]: > 1000 nM

SMILES: COc1cc2ncnc(Nc3cccc(Cl)c3F)c2cc1OC(=O)N1CCN(C)C[C@H]1C [AZD3759]
- drug sensitivity score [1]: 0
- absolute EC50 for viability [2]: > 1000 nM

SMILES: CN(Cc1cnc2nc(N)nc(N)c2n1)c1ccc(C(=O)N[C@@H](CCC(=O)O)C(=O)O)cc1 [Methotrexate]
- drug sensitivity score [1]: 4.7
- absolute EC50 for viability [2]: > 5000 nM

SMILES: COc1cc(N2CCC(N3CCN(C)CC3)CC2)ccc1Nc1ncc(Cl)c(Nc2ccccc2P(C)(C)=O)n1 [Brigatinib]
- drug sensitivity score [1]: 2.8
- absolute EC50 for viability [2]: 944 nM

SMILES: CN(C)C(=N)NC(=N)N [Metformin]
- drug sensitivity score [1]: 0
- absolute EC50 for viability [2]: > 100000 nM

SMILES: O=C1CCc2c(Oc3ccc4c(c3)[C@@H]3[C@H](O4)[C@H]3c3nc4cc(C(F)(F)F)ccc4[nH]3)ccnc2N1 [BGB-283]
- drug sensitivity score [1]: 4.2
- absolute EC50 for viability [2]: > 10000 nM

SMILES: Nc1ncnc2c1nc(Cl)n2[C@@H]1O[C@H](CO)[C@@H](O)[C@H]1O [8-chloro-adenosine]
- drug sensitivity score [1]: 10.9
- absolute EC50 for viability [2]: 5350 nM

SMILES: CC(C)(O)CNc1nc(Nc2ccnc(C(F)(F)F)c2)nc(-c2cccc(C(F)(F)F)n2)n1 [Enasidenib]
- drug sensitivity score [1]: 0
- absolute EC50 for viability [2]: > 10000 nM

SMILES: CCN(CCCOc1ccc2c(Nc3cc(CC(=O)Nc4cccc(F)c4)[nH]n3)ncnc2c1)CCOP(=O)(O)O [Barasertib]
- drug sensitivity score [1]: 0.1
- absolute EC50 for viability [2]: > 1000 nM

SMILES: CC(=O)N(O)CCCCCNC(=O)CCC(=O)N(O)CCCCCNC(=O)CCC(=O)N(O)CCCCCN [Deferoxamine]
- drug sensitivity score [1]: 0
- absolute EC50 for viability [2]: > 10000 nM

SMILES: COc1cc2c(N3CCN(C(=O)Nc4ccc(OC(C)C)cc4)CC3)ncnc2cc1OCCCN1CCCCC1 [Tandutinib]
- drug sensitivity score [1]: 2.7
- absolute EC50 for viability [2]: > 1000 nM

SMILES: Cc1nc(C(=O)NCC(=O)O)c(O)c2ccc(Oc3ccccc3)cc12 [Roxadustat]
- drug sensitivity score [1]: 0.5
- absolute EC50 for viability [2]: > 10000 nM

SMILES: C=CCn1c(=O)c2cnc(Nc3ccc(N4CCN(C)CC4)cc3)nc2n1-c1cccc(C(C)(C)O)n1 [AZD1775]
- drug sensitivity score [1]: 4.8
- absolute EC50 for viability [2]: > 10000 nM

SMILES: Nc1ncnc2c1c(COc1cccc(Cl)c1)nn2C1CCOCC1
- drug sensitivity score [1]: 0
- absolute EC50 for viability [2]: > 10000 nM

SMILES: CNc1nc(Nc2cn(C(C)(C)C#N)nc2C)ncc1C(F)(F)F [GNE-0877]
- drug sensitivity score [1]: 0
- absolute EC50 for viability [2]: > 1000 nM

SMILES: NS(=O)(=O)NCCNc1nonc1/C(=N/O)Nc1ccc(F)c(Br)c1 [Epacadostat]
- drug sensitivity score [1]: 0
- absolute EC50 for viability [2]: > 10000 nM

SMILES: CC[C@]1(O)C[C@@H]2CN(CCc3c([nH]c4ccccc34)[C@@](C(=O)OC)(c3cc4c(cc3OC)N(C)[C@H]3[C@@](O)(C(=O)OC)[C@H](OC(C)=O)[C@]5(CC)C=CCN6CC[C@]43[C@@H]65)C2)C1 [Vinblastine]
- drug sensitivity score [1]: 1.9
- absolute EC50 for viability [2]: > 1000 nM

SMILES: CC(=O)Nc1cccc(-n2c(=O)n(C3CC3)c(=O)c3c(Nc4ccc(I)cc4F)n(C)c(=O)c(C)c32)c1 [Trametinib]
- drug sensitivity score [1]: 2.7
- absolute EC50 for viability [2]: > 250 nM

SMILES: CN1CCN(c2nc(C3=C(c4c[nH]c5ccccc45)C(=O)NC3=O)c3ccccc3n2)CC1 [Sotrastaurin]
- drug sensitivity score [1]: 2.8
- absolute EC50 for viability [2]: > 10000 nM

SMILES: CCOC(=O)C1=CCCC[C@H]1S(=O)(=O)Nc1ccc(F)cc1Cl [Resatorvid]
- drug sensitivity score [1]: 0
- absolute EC50 for viability [2]: 9930 nM

SMILES: CC(C)Nc1cc(-c2c[nH]c(C(=O)N[C@H](CO)c3cccc(Cl)c3)c2)c(Cl)cn1 [Ulixertinib]
- drug sensitivity score [1]: 2.4
- absolute EC50 for viability [2]: > 10000 nM

SMILES: C=CC(=O)Nc1cccc(Nc2nc(Nc3ccc(N4CCN(C(C)=O)CC4)cc3OC)ncc2C(F)(F)F)c1 [Rociletinib]
- drug sensitivity score [1]: 5.8
- absolute EC50 for viability [2]: 2860 nM

SMILES: Cc1cc(Nc2nc(N[C@@H](C)c3ncc(F)cn3)ncc2Cl)[nH]n1 [AZD1480]
- drug sensitivity score [1]: 0.6
- absolute EC50 for viability [2]: > 1000 nM

SMILES: CC(C)(C)NC(=O)[C@H]1CC[C@H]2[C@@H]3CC[C@H]4NC(=O)C=C[C@]4(C)[C@H]3CC[C@]12C [Finasteride]
- drug sensitivity score [1]: 0
- absolute EC50 for viability [2]: > 10000 nM

SMILES: Cc1ncc(Cl)cc1NCc1ccc(C(=O)N[C@@H](CC2CCCC2)C(=O)NC2CC2)s1
- drug sensitivity score [1]: 0
- absolute EC50 for viability [2]: > 5000 nM

SMILES: CNc1nc(-c2ccc3c(N)n[nH]c3c2)cc(N2C[C@@H](C(=O)NC3CCCCC3)CC[C@H]2C)n1
- drug sensitivity score [1]: 5.4
- absolute EC50 for viability [2]: > 10000 nM

SMILES: CNC(=O)c1cccc(-c2ccc3c(N4CCOC[C@@H]4C)nc(N4CCOC[C@@H]4C)nc3n2)c1 [Vistusertib]
- drug sensitivity score [1]: 13.7
- absolute EC50 for viability [2]: 488 nM

SMILES: CC[C@]1(O)C[C@H]2CN(CCc3c([nH]c4ccccc34)[C@@](C(=O)OC)(c3cc4c(cc3OC)N(C=O)[C@H]3[C@@](O)(C(=O)OC)[C@H](OC(C)=O)[C@]5(CC)C=CCN6CC[C@]43[C@@H]65)C2)C1 [Vincristine]
- drug sensitivity score [1]: 3.4
- absolute EC50 for viability [2]: > 1000 nM
